Molecules are shown by their SMILES.

The assay has as its system asymmetric di-methyl PABP1 in RKO cells. Kind of assay: RKO methylation assay, In Cell Western (ICW) for asymmetric di-methyl PABP1. Particulars: Homo sapiens, RKO, Cellular potencies, ICW PABP1me2a. The format is cell-based. The essentials: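 RKO cells treated with compound for 48 h at 37 °C, then fixed, permeabilized and immunostained for asymmetric di-methyl PABP1, with DRAQ5 as DNA stain. Infrared 700/800 nm signal ratio normalized to DMSO and 20 μM reference-compound controls; IC50 from triplicate wells.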

As for `CNC[C@@H](O)COc1ccc(Cl)c(-c2nc(N[C@H]3C[C@@H](OC)C3)c(C)c(-c3c(C)noc3C)n2)c1` [Example 144-3], the IC50 (commonly the concentration that inhibits the measured activity by half) is under 5 µM. With `CCOC(=O)N1CCC(Nc2nc(-c3cc(OC[C@@H](O)CNC)ccc3Cl)nc(-c3c(C)noc3C)c2C)CC1` [Example 105-3] the figure was under 5 µM; with `CNCC(O)COc1cccc(-c2nc(N[C@@H]3CCOC3)c(C)c(N3CCN(C4CC4)[C@H](C)C3)n2)c1` (stereo partly shown) [Example 466-1a], under 5 µM; with `CNC[C@@H](O)COc1ccc(Cl)c(-c2nc(NC3CCN(C)CC3(F)F)c(C)c(-c3c(C)noc3C)n2)c1` (stereo partly shown) [Example 258-3], under 5 µM.

Compound `CNC[C@H](O)COc1cccc(-c2nc(NC3CCOCC3)c(C)c(-c3c(C)noc3C)n2)c1` [Example 55-1a] displayed an IC50 of under 5 µM.

For the compound `CNCC(O)COc1cccc(-c2nc(-c3c(C)nn(C(C)C)c3C)cc(N(C)C3CCOCC3)n2)c1` (stereo not shown) [Example 496-1a], the IC50 is under 5 µM. The value for `CNC[C@@H](O)COc1ccc(Cl)c(-c2nc(-c3c(C)noc3C)c(C)c(N3CCC4(CCOC4)C3)n2)c1` (stereo partly shown) [Example 288-3] was under 5 µM; that for `CNCC(O)COc1ccc(Cl)c(-c2nc(NC3CCN(C(=O)OC)CC3)c(Cl)c(-c3c(C)noc3C)n2)c1` (stereo not shown) [Example 187-1a] was under 5 µM; that for `CCN1CCN(c2cc(-c3c(C)noc3C)nc(-c3cccc(OCC(O)CNC)c3)n2)CC1` (stereo not shown) [Example 20-1a] was 5 to 10 µM. The compound `CNC[C@@H](O)COc1ccc(Cl)c(-c2nc(-c3c(C)noc3C)c(C)c(N3CCc4nn(C)cc4C3)n2)c1` [Example 122-3] came in with an IC50 of under 5 µM. In the case of `CNC[C@H](O)COc1ccc(Cl)c(-c2nc(-c3c(C)noc3C)c(C)c(N3CCC4(CC3)CN(S(C)(=O)=O)C4)n2)c1` [Example 75-3], the IC50 is under 5 µM. The compound `CNCC(O)COc1cccc(-c2nc(NC3CCOCC3C)c(C)c(-c3c(C)noc3C)n2)c1` (stereo not shown) [Example 269-1a] showed an IC50 of under 5 µM. With `CCS(=O)(=O)N1CCC(Nc2nc(-c3cc(OC[C@@H](O)CNC)ccc3Cl)nc(-c3c(C)noc3C)c2C)CC1` [Example 67-3] the figure was under 5 µM. The value for `CNCC(O)COc1cccc(-c2nc(-c3ccnc(C(C)(C)O)c3)cc(N(C)C3CCOCC3)n2)c1` (stereo not shown) [Example 503-1a] was under 5 µM. In turn, `CNCC(O)COc1cccc(-c2nc(-c3c(C)noc3C)c(C)c(N(C)C)n2)c1` (stereo not shown) [Example 308-1a] registered an IC50 of under 5 µM. With `CNC[C@@H](O)COc1ccc(Cl)c(-c2nc(-c3c(C)noc3C)c(C)c(N3Cc4c(C)nn(C)c4C3)n2)c1` [Example 236-3] the figure was under 5 µM.

Compound `CNC[C@@H](O)COc1ccc(F)c(-c2nc(-c3c(C)noc3C)c(C)c(N3CC4(CCN(C(=O)OC(C)C)CC4)C3)n2)c1` [Example 281-3] displayed an IC50 of under 5 µM. On to `CNC[C@H](O)COc1ccc(F)c(-c2nc(N[C@H]3CCN(C4CC4)C[C@H]3F)c(C)c(-c3c(C)noc3C)n2)c1` [Example 99-3], for which the IC50 is under 5 µM. The value for `CNCC(O)COc1cccc(-c2nc(NC3CCOC3)cc(-c3c(C)noc3C)n2)c1` (stereo not shown) [Example 31-1a] was 5 to 10 µM; that for `CNCC(O)COc1cccc(-c2nc(-c3c(C)noc3C)cc(N3C[C@@H]4C[C@H]3CN4C(C)=O)n2)c1` (stereo partly shown) [Example 95-1a] was 10 to 20 µM. With `CNCC(O)COc1cccc(-c2nc(N[C@H]3C[C@H](O)C3)cc(-c3c(C)noc3C)n2)c1` (stereo partly shown) [Example 43-1a] the figure was 10 to 20 µM; with `CNCC(O)COc1cccc(-c2nc(NC3CCOCC3)c(C)c(-c3c(C)noc3C3CC3)n2)c1` (stereo not shown) [Example 236-1a], under 5 µM; with `CNC[C@@H](O)COc1ccc(Cl)c(-c2nc(NC3CCN(C4CC4)CC3(F)F)c(C)c(-c3c(C)noc3C)n2)c1` (stereo partly shown) [Example 292-3], under 5 µM. `Cc1noc(C)c1-c1nc(-c2cc(OC[C@H](O)CN(C)C)ccc2Cl)nc(N[C@H]2CCN(C3CC3)[C@@H](C)C2)c1C` [Example 171-3] came in with an IC50 of under 5 µM. The value for `CNCC(O)COc1ccc(C)c(-c2nc(NC3CCOC(C)C3)c(C)c(-c3c(C)noc3C)n2)c1` (stereo not shown) [Example 124-3] was under 5 µM.

The record behind these values is patent US10633389B2, “CARM1 inhibitors and uses thereof” (Epizyme, Inc., priority 2013, dated 2020).
